Experimental data from publication PMC11501026, “L-Arginine and asymmetric dimethylarginine (ADMA) transport across the mouse blood-brain and blood-CSF barriers: Evidence of saturable transport at both interfaces and CNS to blood efflux” (PLOS ONE, 2024).
“And” between values parts separate entries of the source, which are not always exact repeats. Identical values can stand only once. Counter-ions that a name gives are not always drawn. Like-named read-outs stand apart in the source and are kept apart here.

Legend:
[1] = capillary depletion analysis after in situ brain perfusion; assay type: in vivo, mouse; set-up: [3H] ADMA and [14C] Sucrose uptake, homogenate / Difference (ADMA minus Sucrose), homogenate / [3H] ADMA and [14C] Sucrose uptake, supernatant / Difference (ADMA minus Sucrose), supernatant / uptake, homogenate / uptake, supernatant: unit not given here; settings: 5ml/min; for Kp at 20 min, 62.5 nM / Kp at […] / Kp at 30 min, 62.5 nM / Kp at 10 min, 62.5 nM: male, BALB/c, mouse; for Kp at 30 min, 62.5 nM / Kp at 10 min, 62.5 nM: other: in situ brain perfusion
Protocol: The microvasculature within a sample of brain tissue can be separated from the brain parenchyma using capillary depletion analysis. Following perfusion, the remaining brain tissue after microdissection of the regions described above (typically 200–300 mg) underwent capillary depletion following a method modified for mouse. […]

[2] = system: [3H]-ADMA transport across the blood-brain and blood-CSF barriers; assay: self-inhibition, in situ perfusion: [^3H]-ADMA with 100 μM unlabelled ADMA; assay type: in vivo, mouse; settings: male, Balb/c, mouse, other: in situ brain perfusion, with unlabelled ADMA 100 µM, 10 mins, Balb/c ♂, 5ml/min
Protocol: Self-inhibition experiments were also performed. […] Cross-competition experiments were also performed.
The percentage change in the RTissue uptake values achieved in the absence or presence of an unlabelled inhibitor can be calculated by means of Eq 4.
%change=RTissue−RInhibition/RTissue×100 Eq 4
We define RInhibition as the RTissue uptake in the presence of an inhibitor in the artificial plasma.
A decrease in the uptake of radiolabelled solute in the presence of unlabelled inhibitor is indicative of a saturable influx transport system. Conversely, an increase in the uptake of radiolabelled solute in the presence of unlabelled inhibitor is indicative of a saturable efflux transport system.

[3] = 2.5 mins, Balb/c ♂, individual mouse
[4] = 20 mins, Balb/c ♂, individual mouse
[5] = 30 mins, Balb/c ♂, individual mice
[6] = CONTROL, 10 mins, Balb/c ♂, individual mouse
[7] = [3H] ADMA + [14C] Sucrose, 30 mins, Balb/c ♂, individual mice

- Difference (ADMA minus Sucrose), homogenate [1, 6]: 0.2688 and 0.161 and 0.1425 and -0.07309
- [3H] ADMA and [14C] Sucrose uptake, supernatant [1, 6]: 0.1611 and 0.1028 and 0.139 and 0.1685
- Kp at 20 min, 62.5 nM ([1]; capillary depletion pellet (endothelial cell-enriched), Difference (ADMA minus Sucrose), pellet, 20 mins, mean): 0.0248
- Kp at 20 min, 62.5 nM ([1]; capillary depletion pellet (endothelial cell-enriched), [3H] ADMA and [14C] Sucrose uptake, pellet, 20 mins, mean): 0.0276
- Kp at […] ([1]; capillary depletion supernatant (brain parenchyma), Difference (ADMA minus Sucrose), supernatant, 2.5 mins, individual mouse): 0.0611
- Kp at […] ([1]; capillary depletion supernatant (brain parenchyma), Difference (ADMA minus Sucrose), supernatant, 2.5 mins, mean): 0.0483
- Kp at 20 min, 62.5 nM ([1]; capillary depletion supernatant (brain parenchyma), Difference (ADMA minus Sucrose), supernatant, 20 mins, mean): 0.14
- Kp at […] ([1]; capillary depletion supernatant (brain parenchyma), [3H] ADMA and [14C] Sucrose uptake, supernatant, 2.5 mins, individual mouse): 0.0737
- Kp at […] ([1]; capillary depletion supernatant (brain parenchyma), [3H] ADMA and [14C] Sucrose uptake, supernatant, 2.5 mins, mean): 0.0581
- Kp at 20 min, 62.5 nM ([1]; capillary depletion supernatant (brain parenchyma), [3H] ADMA and [14C] Sucrose uptake, supernatant, 20 mins, mean): 0.156
- Kp at 30 min, 62.5 nM ([1]; capillary depletion supernatant (brain parenchyma), Difference (ADMA minus Sucrose), supernatant, 30 mins, Balb/c ♂, mean): 0.0722
- Kp at 10 min, 62.5 nM ([1]; capillary depletion supernatant (brain parenchyma), Difference (ADMA minus Sucrose), supernatant, CONTROL, 10 mins, Balb/c ♂, mean): 0.0862
- Kp at 30 min, 62.5 nM ([1]; capillary depletion supernatant (brain parenchyma), [3H] ADMA + [14C] Sucrose, 30 mins, Balb/c ♂, mean, read-out: uptake, supernatant): 0.0993
- Kp at 10 min, 62.5 nM ([1]; capillary depletion supernatant (brain parenchyma), [3H] ADMA and [14C] Sucrose uptake, supernatant, CONTROL, 10 mins, Balb/c ♂, individual mouse): 0.119
- Kp at 10 min, 62.5 nM ([1]; capillary depletion supernatant (brain parenchyma), [3H] ADMA and [14C] Sucrose uptake, supernatant, CONTROL, 10 mins, Balb/c ♂, mean): 0.138
- Kp at […] ([1]; endothelial cell-enriched pellet (capillary depletion), Difference (ADMA minus Sucrose), pellet, 2.5 mins, individual mouse): 0.0108
- Kp at […] ([1]; endothelial cell-enriched pellet (capillary depletion), Difference (ADMA minus Sucrose), pellet, 2.5 mins, mean): 0.0108
- Kp at […] ([1]; endothelial cell-enriched pellet (capillary depletion), [3H] ADMA and [14C] Sucrose uptake, pellet, 2.5 mins, individual mouse): 0.0124
- Kp at […] ([1]; endothelial cell-enriched pellet (capillary depletion), [3H] ADMA and [14C] Sucrose uptake, pellet, 2.5 mins, mean): 0.0131
- Kp at 30 min, 62.5 nM ([1]; endothelial cell-enriched pellet (capillary depletion), Difference (ADMA minus Sucrose), pellet, 30 mins, Balb/c ♂, individual mice): 0.0153
- Kp at 30 min, 62.5 nM ([1]; endothelial cell-enriched pellet (capillary depletion), Difference (ADMA minus Sucrose), pellet, 30 mins, Balb/c ♂, mean): 0.012
- Kp at 10 min, 62.5 nM ([1]; endothelial cell-enriched pellet (capillary depletion), Difference (ADMA minus Sucrose), pellet, CONTROL, 10 mins, Balb/c ♂, mean): 0.00783
- Kp at 30 min, 62.5 nM ([1]; endothelial cell-enriched pellet (capillary depletion), [3H] ADMA + [14C] Sucrose, 30 mins, Balb/c ♂, individual mice, read-out: uptake, pellet): 0.0184
- Kp at 30 min, 62.5 nM ([1]; endothelial cell-enriched pellet (capillary depletion), [3H] ADMA + [14C] Sucrose, 30 mins, Balb/c ♂, mean, read-out: uptake, pellet): 0.0166
- Kp at 10 min, 62.5 nM ([1]; endothelial cell-enriched pellet (capillary depletion), [3H] ADMA and [14C] Sucrose uptake, pellet, CONTROL, 10 mins, Balb/c ♂, mean): 0.0527
- Kp at […] ([1]; whole-brain homogenate (capillary depletion), Difference (ADMA minus Sucrose), homogenate, 2.5 mins, mean): 0.0793
- Kp at 20 min, 62.5 nM ([1]; whole-brain homogenate (capillary depletion), Difference (ADMA minus Sucrose), homogenate, 20 mins, mean): 0.208
- Kp at […] ([1]; whole-brain homogenate (capillary depletion), [3H] ADMA and [14C] Sucrose uptake, homogenate, 2.5 mins, mean): 0.0942
- Kp at 20 min, 62.5 nM ([1]; whole-brain homogenate (capillary depletion), [3H] ADMA and [14C] Sucrose uptake, homogenate, 20 mins, mean): 0.234
- Kp at 30 min, 62.5 nM ([1]; whole-brain homogenate (capillary depletion), Difference (ADMA minus Sucrose), homogenate, 30 mins, Balb/c ♂, mean): 0.122
- Kp at 10 min, 62.5 nM ([1]; whole-brain homogenate (capillary depletion), Difference (ADMA minus Sucrose), homogenate, CONTROL, 10 mins, Balb/c ♂, individual mouse): 0.136
- Kp at 10 min, 62.5 nM ([1]; whole-brain homogenate (capillary depletion), Difference (ADMA minus Sucrose), homogenate, CONTROL, 10 mins, Balb/c ♂, mean): 0.127
- Kp at 30 min, 62.5 nM ([1]; whole-brain homogenate (capillary depletion), [3H] ADMA + [14C] Sucrose, 30 mins, Balb/c ♂, mean, read-out: uptake, homogenate): 0.156
- Kp at 10 min, 62.5 nM ([1]; whole-brain homogenate (capillary depletion), [3H] ADMA and [14C] Sucrose uptake, homogenate, CONTROL, 10 mins, Balb/c ♂, mean): 0.224
- Kp at 10 min, 62.5 nM ([2]; CSF, Difference (ADMA minus Sucrose), CSF, + 100uM un-labelled ADMA, mean): 2.01
- Kp at 10 min, 62.5 nM ([2]; CSF, [3H] ADMA + [14C] Sucrose + 100uM un-labelled ADMA, mean, read-out: uptake into CSF): 2.15
- Kp at 10 min, 62.5 nM ([2]; cerebellum, Difference (ADMA minus Sucrose), cerebellum, + 100uM un-labelled ADMA, individual mice): 0.0515
- Kp at 10 min, 62.5 nM ([2]; cerebellum, Difference (ADMA minus Sucrose), cerebellum, + 100uM un-labelled ADMA, mean): 0.0701
- Kp at 10 min, 62.5 nM ([2]; cerebellum, [3H] ADMA + [14C] Sucrose + 100uM un-labelled ADMA, individual mice, read-out: uptake into cerebellum): 0.09
- Kp at 10 min, 62.5 nM ([2]; cerebellum, [3H] ADMA + [14C] Sucrose + 100uM un-labelled ADMA, mean, read-out: uptake into cerebellum): 0.121
SMILES: CN(C)C(N)=NCCC[C@H](N)C(=O)O [ADMA, N^G,N^G-dimethylarginine dihydrochloride]
- Difference (ADMA minus Sucrose), homogenate [1, 3]: 0.08009 and 0.1215 and 0.06334 and 0.05481 and 0.07702
- Difference (ADMA minus Sucrose), pellet [1, 3]: 0.01248 and 0.007546 and 0.01055 and 0.0124
- Difference (ADMA minus Sucrose), supernatant [1, 3]: 0.05051 and 0.03514 and 0.04142 and 0.05329
- [3H] ADMA and [14C] Sucrose uptake, homogenate [1, 3]: 0.09289 and 0.1482 and 0.07368 and 0.06461 and 0.09146
- [3H] ADMA and [14C] Sucrose uptake, pellet [1, 3]: 0.01492 and 0.009191 and 0.01385 and 0.01522
- [3H] ADMA and [14C] Sucrose uptake, supernatant [1, 3]: 0.06123 and 0.0402 and 0.05083 and 0.0645
- Difference (ADMA minus Sucrose), homogenate [1, 4]: 0.2153 and 0.186 and 0.3039 and 0.2292 and 0.1075
- Difference (ADMA minus Sucrose), pellet [1, 4]: 0.01581 and 0.02784 and 0.03159 and 0.04237 and 0.006518
- Difference (ADMA minus Sucrose), supernatant [1, 4]: 0.1074 and 0.1722 and 0.2036 and 0.1573 and 0.05863
- [3H] ADMA and [14C] Sucrose uptake, homogenate [1, 4]: 0.2383 and 0.2004 and 0.3388 and 0.2498 and 0.142
- [3H] ADMA and [14C] Sucrose uptake, pellet [1, 4]: 0.01706 and 0.03 and 0.03434 and 0.04519 and 0.01122
- [3H] ADMA and [14C] Sucrose uptake, supernatant [1, 4]: 0.1162 and 0.1882 and 0.2293 and 0.1698 and 0.07807
- Difference (ADMA minus Sucrose), homogenate [1, 5]: 0.07039 and 0.3122 and 0.07479 and 0.04539 and 0.1073
- Difference (ADMA minus Sucrose), pellet [1, 5]: 0.01163 and 0.01136 and 0.007805 and 0.01411
- Difference (ADMA minus Sucrose), supernatant [1, 5]: 0.1199 and 0.1088 and 0.02622 and 0.04075 and 0.06521
- Difference (ADMA minus Sucrose), pellet [1, 6]: 0.02507 and 0.05085 and 0.009734 and 0.01917 and -0.0657
- Difference (ADMA minus Sucrose), supernatant [1, 6]: 0.07602 and 0.1167 and 0.08919 and 0.1193 and 0.02984
- [3H] ADMA and [14C] Sucrose uptake, homogenate [1, 6]: 0.1657 and 0.3684 and 0.1901 and 0.1639 and 0.2325
- [3H] ADMA and [14C] Sucrose uptake, pellet [1, 6]: 0.02884 and 0.07512 and 0.03345 and 0.03555 and 0.0904
- uptake, homogenate [1, 7]: 0.08533 and 0.3484 and 0.1186 and 0.07545 and 0.1502
- uptake, pellet [1, 7]: 0.01575 and 0.016 and 0.01288 and 0.01992
- uptake, supernatant [1, 7]: 0.135 and 0.1332 and 0.05406 and 0.0758 and 0.09832
